In assay [1] the target is T1, NADH oxidase from HeLa cell plasma membranes (Homo sapiens, UniProt Q16206).
T1 sequence (Q16206 1-610): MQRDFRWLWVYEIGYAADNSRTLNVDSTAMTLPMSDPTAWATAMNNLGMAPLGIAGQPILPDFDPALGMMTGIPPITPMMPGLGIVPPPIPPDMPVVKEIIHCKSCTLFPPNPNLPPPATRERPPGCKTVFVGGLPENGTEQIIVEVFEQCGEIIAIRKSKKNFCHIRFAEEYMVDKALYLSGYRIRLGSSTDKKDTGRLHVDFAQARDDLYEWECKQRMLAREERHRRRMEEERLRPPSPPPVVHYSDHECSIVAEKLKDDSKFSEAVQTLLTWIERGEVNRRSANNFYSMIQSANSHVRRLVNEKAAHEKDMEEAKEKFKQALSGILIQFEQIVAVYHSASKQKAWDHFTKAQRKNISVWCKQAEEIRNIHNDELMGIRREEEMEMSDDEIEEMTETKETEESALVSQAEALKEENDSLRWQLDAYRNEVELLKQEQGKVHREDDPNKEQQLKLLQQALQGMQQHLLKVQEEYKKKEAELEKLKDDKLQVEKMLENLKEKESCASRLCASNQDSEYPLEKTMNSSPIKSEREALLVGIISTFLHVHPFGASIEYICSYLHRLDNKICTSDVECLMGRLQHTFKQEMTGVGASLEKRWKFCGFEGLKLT
In words: Spectrophotometric NADH oxidase assay, HeLa plasma membranes. It is filed as biochemical. Here is the method:
Purification of plasma membranes from HeLa cells. HeLa cells were grown as suspension cultures in minimum essential medium (MEM) supplemented with horse serum, diferric transferrin and heparin. Cells were collected by centrifugation for 6 to 15 min at 1,000 to 3,000 rpm. The cell pellets were resuspended in 0.2 mM EDTA in 1 mM NaHCO3 in an approximate ratio of 1 ml per 10^8 cells and incubated on ice for 10 to 30 min to swell the cells. Homogenization was with a Polytron Homogenizer for 30 to 40 sec at 10,500 rpm using a PT-PA 3012/23 or ST-probe in 7 to 8 ml aliquots. To estimate breakage, the cells are monitored by light microscopy before and after homogenization. […]
The homogenates were centrifuged for 10 min at 1,000 rpm (175 g) to remove unbroken cells and nuclei and the supernatant was centrifuged a second time at 1.4 x 10^6 g min (e.g. 1 h at 23,500 g) to prepare a plasma membrane enriched microsome fraction. […] The purity of the plasma membrane was determined to be > 90% by electron microscope morphometry. […]
Spectrophometric assay of NADH oxidase. NADH oxidase activity was determined as the disappearance of NADH measured at 340 nm in a reaction mixture containing 25 mM Tris-MES buffer (pH 7.2), 1 mM KCN to inhibit the low levels of contaminating mitochondrial oxidase activity, and 150 µM NADH at 37°C with constant stirring. […]

Assay [2] has as its system circulating NADH oxidase in the serum. In words: NADH oxidase activity of human serum. It counts as biochemical. Here is the method:
Spectrophometric assay of NADH oxidase. NADH oxidase activity was determined as the disappearance of NADH measured at 340 nm in a reaction mixture containing 25 mM Tris-MES buffer (pH 7.2), 1 mM KCN to inhibit the low levels of contaminating mitochondrial oxidase activity, and 150 µM NADH at 37°C with constant stirring. Activity was measured using a Hitachi U3210 spectrophotometer with continuous recording over two intervals of 5 min each. A millimolar extinction coefficient of 6.22 was used to determine specific activity.

The test system of the next assay is HeLa cells. Put plainly: Growth of HeLa cells in culture. As to conditions: Homo sapiens, HeLa, 72 h. It counts as cell-based, human. Here is the method: Growth of cells. HeLa cells (ATCC CCL2), were grown in 150 cm^2 flasks in Minimal Essential Medium (Gibco), pH 7.4. at 37°C with 10% bovine calf serum (heat-inactivated), plus 50 mg/l gentamycin sulfate (Sigma). Cells were trypsinized with Sigma IX trypsin for 1 to 2 min, harvested by scraping and taken up in TD-tris buffer (140 mM NaCl, 5 mM KCl, 0.7 mM Na2HPO4 and 25 mM Tris, pH 7.4) to a final cell concentration of 0.1 g wet weight (gww) per ml.
The number of cells initially plated was subtracted. The results were averages from duplicate experiments.

Another assay concerns normal rat kidney cells. In words: Growth of normal rat kidney cells. It counts as cell-based.
Assay [3] concerns NADH oxidase activity of isolated plasma membranes of normal rat kidney cells. In words: NADH oxidase assay, plasma membranes of normal rat kidney cells.
For assay [4], the system named is Protein disulfide-thiol interchange activity of HeLa plasma membrane. In words: Protein disulfide-thiol interchange (RNAse activity with cCMP as substrate). It counts as biochemical, human. Here is the method:
Estimation of protein disulfide isomerase- (PDI) like activity. Two methods were employed to determine PDI or PDI-like activity.
In the first method, ribonuclease A activity was measured using a spectrophotometric assay based on cCMP as RNAse substrate. Scrambled RNAse ([…]) was incubated together with 0.45 mM cCMP in 50 Mm Tris-MES buffer, pH 6.5, at 30°C in a final volume of 3 ml. […] A variation of this assay was to preincubate scrambled RNAse with transitional endoplasmic reticulum for 20 min in the presence or absence of 1 µM all-trans retinol (using ethanol as control) and in the presence or absence of 1 µM reduced or oxidized glutathione or a mixture of both. After this 20 min of "reactivation" of RNAse, cCMP was added to a final concentration of 0.45 mM to initiate the reaction. The increase of the absorbance at 296 nm was recorded over 25 min and the concentrations of cCMP were determined (E = 0.19 mM^-1cm^-1). Spectrophotometric measurements were with a Hitachi U3210 spectrophotometer with a thermostatic cell compartment maintained at 30°C with continuous stirring.
Preparation of scrambled RNAse substrate. To prepare the oxidized, denatured RNAse substrate (scrambled RNAse), native RNAse A (Sigma, Type 1-AS from bovine pancreas) (30 µg/ml) was incubated 1 h at 35°C in 50 mM Tris-acetate, pH 8.6, containing 9 M urea and 130 mM DTT.
Protein concentration was estimated from spectrophotometric measurement at 280 nm using native RNAse A as standard. For preparation of scrambled RNAse, the reduced RNAse was diluted to 0.5 mg/ml with 0.1 M acetic acid. Solid urea was then added to a final concentration of 10 M after which 0.1 M sarcosine hydrochloride was added and the pH adjusted to 8.5 with 1 M Tris. The mixture then was incubated in the dark for 2-3 days during which time the protein was randomly oxidized. The scrambled product was recovered by acidification to pH 4 with glacial acetic acid and elution from Sephadex G-25 in 0.1 M acetic acid. Fractions containing protein were pooled, adjusted to pH 8 and stored at 4°C.

The structures appear in SMILES notation. pIC50: −log10 of the molar value. Read-outs that look alike come from different tables or passages of the source. A value given as a limit tells only on which side of the number the result lay.

`COc1cc(CNC(=O)CCCC/C=C/C(C)C)ccc1O` [capsaicin]: in assay [1], the “inhibition of NADH oxidase activity (in words)” value is listed as “nearly completely inhibited”. In addition, in assay [2], the “NADH oxidase activities of human serum, Mean” value is on record as 0.56 and the “Ratio, Mean” value amounted to 0.97. Further, the pIC50 with HeLa cells (read-out: concentration at which growth was 50% inhibited) is around 6.00. Further, the pIC50 in the assay with HeLa cells (read-out: concentration of drug able to inhibit growth by 50%) was below 5.00. The “concentration at which growth is inhibited” value in the assay on normal rat kidney cells is listed as > 10^-5 M. The “concentration at which NADH oxidase activity is inhibited” value in assay [3] is on record as > 10^-5 M. The “Protein disulfide-thiol interchange activity” value in assay [4] is recorded as “.95 nmoles/min/mg protein”.

For the origin of these results see patent publication EP0752872B1, “NADH OXIDASE AS A TARGET IN DIAGNOSIS AND THERAPY” (Morré, D. James, priority 1994, dated 1995).
